{
  "source": "ChEMBL document CHEMBL3046566",
  "about": "“In vitro antimycobacterial activity of novel N-(4-(substituted phenyl amino)-6-(pyridin-2-ylamino)-1,3,5-triazin-2-yl)isonicotinohydrazide” (Med Chem Res, 2011)",
  "key": {"[1]": {"tested_on": "Mycobacterium tuberculosis", "test": "Antimycobacterial activity against Mycobacterium tuberculosis H37Rv ATCC 27294 by microdilution alamar blue assay", "format": "functional"}, "Vero": {"tested_on": "Vero", "test": "Cytotoxicity against Chlorocebus aethiops (African green monkey) Vero cells up to 62.5 ug/ml after 72 hr by MTT assay", "format": "cell-based", "conditions": "chlorocebus sabaeus"}, "[2]": {"tested_on": "Mycobacterium tuberculosis", "test": "Growth inhibition of Mycobacterium tuberculosis H37Rv ATCC 27294 at 0.0311 uM by radiometric analysis", "format": "functional", "conditions": "read-out: GI"}, "[3]": {"tested_on": "Mycobacterium tuberculosis", "test": "Growth inhibition of Mycobacterium tuberculosis H37Rv ATCC 27294 at 0.0614 uM by radiometric analysis", "format": "functional", "conditions": "read-out: GI"}, "[4]": {"tested_on": "Mycobacterium tuberculosis", "test": "Growth inhibition of Mycobacterium tuberculosis H37Rv ATCC 27294 at 0.0418 uM by radiometric analysis", "format": "functional", "conditions": "read-out: GI"}, "[5]": {"tested_on": "Mycobacterium tuberculosis", "test": "Growth inhibition of Mycobacterium tuberculosis H37Rv ATCC 27294 at 0.7110 uM by radiometric analysis", "format": "functional", "conditions": "read-out: GI"}, "[6]": {"tested_on": "Mycobacterium tuberculosis", "test": "Growth inhibition of Mycobacterium tuberculosis H37Rv ATCC 27294 at 0.1218 uM by radiometric analysis", "format": "functional", "conditions": "read-out: GI"}, "[7]": {"tested_on": "Mycobacterium tuberculosis", "test": "Growth inhibition of Mycobacterium tuberculosis H37Rv ATCC 27294 at 0.0650 uM by radiometric analysis", "format": "functional", "conditions": "read-out: GI"}, "[8]": {"tested_on": "Mycobacterium tuberculosis", "test": "Growth inhibition of Mycobacterium tuberculosis H37Rv ATCC 27294 at 0.1277 uM by radiometric analysis", "format": "functional", "conditions": "read-out: GI"}, "[9]": {"tested_on": "Mycobacterium tuberculosis", "test": "Growth inhibition of Mycobacterium tuberculosis H37Rv ATCC 27294 at 0.0677 uM by radiometric analysis", "format": "functional", "conditions": "read-out: GI"}, "[10]": {"tested_on": "Mycobacterium tuberculosis", "test": "Growth inhibition of Mycobacterium tuberculosis H37Rv ATCC 27294 at 0.1109 uM by radiometric analysis", "format": "functional", "conditions": "read-out: GI"}, "[11]": {"tested_on": "Mycobacterium tuberculosis", "test": "Growth inhibition of Mycobacterium tuberculosis H37Rv ATCC 27294 at 0.1127 uM by radiometric analysis", "format": "functional", "conditions": "read-out: GI"}, "[12]": {"tested_on": "Mycobacterium tuberculosis", "test": "Growth inhibition of Mycobacterium tuberculosis H37Rv ATCC 27294 at 0.1214 uM by radiometric analysis", "format": "functional", "conditions": "read-out: GI"}, "[13]": {"tested_on": "Mycobacterium tuberculosis", "test": "Growth inhibition of Mycobacterium tuberculosis H37Rv ATCC 27294 at 0.0550 uM by radiometric analysis", "format": "functional", "conditions": "read-out: GI"}, "[14]": {"tested_on": "Mycobacterium tuberculosis", "test": "Growth inhibition of Mycobacterium tuberculosis H37Rv ATCC 27294 at 0.1110 uM by radiometric analysis", "format": "functional", "conditions": "read-out: GI"}, "[15]": {"tested_on": "Mycobacterium tuberculosis", "test": "Growth inhibition of Mycobacterium tuberculosis H37Rv ATCC 27294 at 0.0250 uM by radiometric analysis", "format": "functional", "conditions": "read-out: GI"}, "[16]": {"tested_on": "Mycobacterium tuberculosis", "test": "Growth inhibition of Mycobacterium tuberculosis H37Rv ATCC 27294 at 0.0211 uM by radiometric analysis", "format": "functional", "conditions": "read-out: GI"}, "[17]": {"tested_on": "Mycobacterium tuberculosis", "test": "Growth inhibition of Mycobacterium tuberculosis H37Rv ATCC 27294 at 0.6890 uM by radiometric analysis", "format": "functional", "conditions": "read-out: GI"}, "[18]": {"tested_on": "Mycobacterium tuberculosis", "test": "Growth inhibition of Mycobacterium tuberculosis H37Rv ATCC 27294 at 0.1229 uM by radiometric analysis", "format": "functional", "conditions": "read-out: GI"}, "[19]": {"tested_on": "Mycobacterium tuberculosis", "test": "Growth inhibition of Mycobacterium tuberculosis H37Rv ATCC 27294 at 0.1211 uM by radiometric analysis", "format": "functional", "conditions": "read-out: GI"}},
  "data": [
    {"smiles": "O=C(NNc1nc(Nc2ccccn2)nc(Nc2c(Cl)cccc2Cl)n1)c1ccncc1", "values": [
      {"measurement": "MIC", "setting": "[1]", "value": 4.69, "unit": "µg/mL"},
      {"measurement": "Activity", "setting": "Vero", "value": "Non-toxic"},
      {"measurement": "inhibition of growth at 0.0311 µM", "setting": "[2]", "value": 91, "unit": "%"}
    ]},
    {"smiles": "O=C(NNc1nc(Nc2ccccn2)nc(Nc2ccc(Cl)cc2Cl)n1)c1ccncc1", "values": [
      {"measurement": "MIC", "setting": "[1]", "value": 5.92, "unit": "µg/mL"},
      {"measurement": "Activity", "setting": "Vero", "value": "Non-toxic"},
      {"measurement": "inhibition of growth at 0.0614 µM", "setting": "[3]", "value": 92, "unit": "%"}
    ]},
    {"smiles": "NS(=O)(=O)c1ccc(Nc2nc(NNC(=O)c3ccncc3)nc(Nc3ccccn3)n2)cc1", "values": [
      {"measurement": "inhibition of growth at 0.0418 µM", "setting": "[4]", "value": 90, "unit": "%"},
      {"measurement": "MIC", "setting": "[1]", "value": 6, "unit": "µg/mL"},
      {"measurement": "Activity", "setting": "Vero", "value": "Non-toxic"}
    ]},
    {"smiles": "O=C(NNc1nc(Nc2ccccc2)nc(Nc2ccccn2)n1)c1ccncc1", "values": [
      {"measurement": "inhibition of growth at 0.711 µM", "setting": "[5]", "value": 71, "unit": "%"}
    ]},
    {"smiles": "Cc1cccc(Nc2nc(NNC(=O)c3ccncc3)nc(Nc3ccccn3)n2)c1", "values": [
      {"measurement": "inhibition of growth at 0.1218 µM", "setting": "[6]", "value": 74, "unit": "%"}
    ]},
    {"smiles": "O=C(NNc1nc(Nc2ccccn2)nc(Nc2ccccc2Cl)n1)c1ccncc1", "values": [
      {"measurement": "inhibition of growth at 0.065 µM", "setting": "[7]", "value": 80, "unit": "%"}
    ]},
    {"smiles": "O=C(NNc1nc(Nc2ccc(O)cc2)nc(Nc2ccccn2)n1)c1ccncc1", "values": [
      {"measurement": "inhibition of growth at 0.1277 µM", "setting": "[8]", "value": 77, "unit": "%"}
    ]},
    {"smiles": "COc1ccccc1Nc1nc(NNC(=O)c2ccncc2)nc(Nc2ccccn2)n1", "values": [
      {"measurement": "inhibition of growth at 0.0677 µM", "setting": "[9]", "value": 81, "unit": "%"}
    ]},
    {"smiles": "O=C(NNc1nc(Nc2cccc([N+](=O)[O-])c2)nc(Nc2ccccn2)n1)c1ccncc1", "values": [
      {"measurement": "inhibition of growth at 0.1109 µM", "setting": "[10]", "value": 72, "unit": "%"}
    ]},
    {"smiles": "Cc1ccc(Nc2nc(NNC(=O)c3ccncc3)nc(Nc3ccccn3)n2)cc1", "values": [
      {"measurement": "inhibition of growth at 0.1127 µM", "setting": "[11]", "value": 77, "unit": "%"}
    ]},
    {"smiles": "O=C(NNc1nc(Nc2ccccn2)nc(Nc2ccccc2[N+](=O)[O-])n1)c1ccncc1", "values": [
      {"measurement": "inhibition of growth at 0.1214 µM", "setting": "[12]", "value": 67, "unit": "%"}
    ]},
    {"smiles": "O=C(NNc1nc(Nc2cccc(Cl)c2)nc(Nc2ccccn2)n1)c1ccncc1", "values": [
      {"measurement": "inhibition of growth at 0.055 µM", "setting": "[13]", "value": 82, "unit": "%"}
    ]},
    {"smiles": "Cc1ccccc1Nc1nc(NNC(=O)c2ccncc2)nc(Nc2ccccn2)n1", "values": [
      {"measurement": "inhibition of growth at 0.111 µM", "setting": "[14]", "value": 71, "unit": "%"}
    ]},
    {"smiles": "O=C(NNc1nc(Nc2ccc(Cl)cc2)nc(Nc2ccccn2)n1)c1ccncc1", "values": [
      {"measurement": "MIC", "setting": "[1]", "value": 5.91, "unit": "µg/mL"},
      {"measurement": "inhibition of growth at 0.025 µM", "setting": "[15]", "value": 94, "unit": "%"}
    ]},
    {"smiles": "COc1ccc(Nc2nc(NNC(=O)c3ccncc3)nc(Nc3ccccn3)n2)cc1", "values": [
      {"measurement": "MIC", "setting": "[1]", "value": 4.11, "unit": "µg/mL"},
      {"measurement": "Activity", "setting": "Vero", "value": "Non-toxic"},
      {"measurement": "inhibition of growth at 0.0211 µM", "setting": "[16]", "value": 94, "unit": "%"}
    ]},
    {"smiles": "COc1cccc(Nc2nc(NNC(=O)c3ccncc3)nc(Nc3ccccn3)n2)c1", "values": [
      {"measurement": "inhibition of growth at 0.689 µM", "setting": "[17]", "value": 83, "unit": "%"}
    ]},
    {"smiles": "O=C(NNc1nc(Nc2ccccn2)nc(Nc2ccccc2O)n1)c1ccncc1", "values": [
      {"measurement": "inhibition of growth at 0.1229 µM", "setting": "[18]", "value": 71, "unit": "%"}
    ]},
    {"smiles": "O=C(NNc1nc(Nc2ccc([N+](=O)[O-])cc2)nc(Nc2ccccn2)n1)c1ccncc1", "values": [
      {"measurement": "inhibition of growth at 0.1211 µM", "setting": "[19]", "value": 69, "unit": "%"}
    ]}
  ]
}
